Here are results for one compound from article PMC11491004, “CHF6523 data suggest that the phosphoinositide 3-kinase delta isoform is not a suitable target for the management of COPD” (Respiratory Research, 2024).

One series relates to sputum cell counts. Description: Cell count in induced sputum. The format is in vivo, human. The following applies: p < 0.05. How it is done: All assessment timings were based on the morning dose. Pre-dose on Days 1 and 28 of each treatment period, blood samples were taken for pharmacokinetic analyses, followed by forced oscillation (including slow vital capacity manoeuvres for inspiratory capacity [IC] and vital capacity [VC]), spirometry (forced expiratory volume in 1 s [FEV1] and forced vital capacity [FVC]), and the COPD Assessment Test (CAT). Blood samples were also taken up to 12 h post-dose on Days 1 and 28 for pharmacokinetic analyses, with blood samples for biomarker assessment pre-dose on Day 1 and 2 h post-dose on Day 28, and spirometry pre-dose on Days 20 and 24. […]
Fold-change from baseline in cell counts, target biomarkers in sputum and blood, and PIP3 were log-transformed and analysed using an analysis of covariance (ANCOVA) model, with treatment, patient, and period as fixed effects, and baseline value as covariate. Changes from baseline in spirometry, forced oscillation and CAT endpoints were analysed using a similar ANCOVA model, but without log transformation. Rescue medication data were analysed using an analysis of variance model, including treatment, period and patient as fixed effects. […]
To induce sputum, patients with FEV1 ≥0.8 L inhaled nebulised hypertonic saline at increasing concentrations (3%, then 4% and finally 5%), with FEV1 monitored for safety after each concentration. […]

In series [1] the test system is eosinophilic/type-2 inflammation. The following applies: series of preclinical studies in rat or mouse models of airway inflammation; cited from earlier work.
A short description of series [2]: CHF6523 plasma pharmacokinetics in patients with COPD. The series is classed as in vivo, human. Particulars: for AUC0–30 min / AUC0–12 h / Cmax: 2 mg twice daily inhaled. How it is done: All assessment timings were based on the morning dose. Pre-dose on Days 1 and 28 of each treatment period, blood samples were taken for pharmacokinetic analyses, followed by forced oscillation (including slow vital capacity manoeuvres for inspiratory capacity [IC] and vital capacity [VC]), spirometry (forced expiratory volume in 1 s [FEV1] and forced vital capacity [FVC]), and the COPD Assessment Test (CAT). Blood samples were also taken up to 12 h post-dose on Days 1 and 28 for pharmacokinetic analyses, with blood samples for biomarker assessment pre-dose on Day 1 and 2 h post-dose on Day 28, and spirometry pre-dose on Days 20 and 24. Sputum was induced prior to each treatment period for baseline determination of biomarkers, and post-dose on Day 20 for collection of phosphatidylinositol (3,4,5)-trisphosphate (PIP3), and on Days 24 and 28 for collection of biomarkers.
Pharmacokinetic assessments were performed under fasting conditions. On days when pharmacokinetic samples were taken, study drug was administered in the morning at the clinical site after a fast of ≥ 10 h (water was allowed), with food or fluid intake not allowed until 1 h post-dose, with the exception of 100 mL of water if the patient coughed as a result of inhalation. Starting from 1 h post-dose and for the following 6 h, patients drank ≥ 240 mL of water every 2 h, with breakfast and lunch served approximately 3 and 5 h after morning study drug, and, on Day 1, dinner at least 2 h before or 1 h after evening drug administration. No intake of alcohol, grapefruit, or xanthine/caffeine containing beverages or food was allowed from 48 h prior to each intake of study medication and until the last visit procedure, with strenuous exercise prohibited for 24 h before any spirometry measurement.
Blood samples of 2 mL were collected in K2-EDTA tubes at pre-dose and at 10, 15, 30, and 45 min and 1, 1½, 2, 3, 4, 6, 8 and 12 h post-dose on Days 1 and 28, and pre-dose on Days 20 and 24. Collected samples were centrifuged within 1 h after blood in a refrigerated centrifuge (at about +4°C) at about 2000 x g for 10 min. The plasma obtained was transferred into two polypropylene tubes (at least 500 μL into the first, and the remaining volume into the second), then stored at or below –80°C, at the clinical centre. The tubes were then transferred (frozen) to a central laboratory, and stored at –80°C until submitted for analysis with a validated liquid chromatography with tandem mass spectrometry (LC/MS-MS) method. Two validated methods were used to cover the range of possible concentrations. The first one, the so-called low-range method, measured CHF6523 over the calibration range 0.02–1.00 ng/mL. The second, the high-range method, measured CHF6523 over the calibration range 1.00–50.0 ng/mL. Overall, the lower limit of quantification in this study (LLoQ) was of 0.02 ng/mL.

With `C[C@@H](c1oc(=O)c2ccccc2c1-c1cccc(CN2CCN(C)CC2)c1)n1nc(-c2cncc(O)c2)c2c(N)ncnc21` [CHF6523], the “CHF6523–placebo differences in sputum cell counts” value with sputum cell counts is listed as “no statistically significant”. Further, in series [1], the “Inhibition of eosinophilic/type-2 inflammation” value is recorded as “potent inhibition of eosinophilic/type-2 inflammation comparable to that of nemiralisib”. Also, the “Time of peak of mean plasma concentration” value in series [2] (Day 1) is on record as 15 min; in series [2] (Day 28 (first post-dose timepoint)), 10 min. For the same compound, the results for the median tmax in series [2] (Day 1) and in series [2] (Day 28) were 15 min and 11 min, respectively. Moreover, the “AUC0–30 min” value in series [2] (plasma, Day 1, mean (SD)) is 3.28 (1.64) ng.h/mL; in series [2] (plasma, Day 28, mean (SD)), 4.21 (2.05) ng.h/mL. The “AUC0–12 h” value in series [2] (plasma, Day 1, mean (SD)) was 8.10 (4.11) ng.h/mL; in series [2] (plasma, Day 28, mean (SD)), 10.50 (5.32) ng.h/mL. Further, the Cmax in series [2] (plasma, Day 1, mean (SD)) is 9.10 (4.42) ng/mL; in series [2] (plasma, Day 28, mean (SD)), 11.70 (5.54) ng/mL. Also, the tmax in series [2] (plasma, Day 1, median (range)) is 0.25 (0.15–2.00) h; in series [2] (plasma, Day 28, median (range)), 0.18 (0.15–0.27) h. Also, the Ctrough is reported as 0.10 (0.05) ng/mL in series [2] (plasma, Day 20 pre-dose, mean (SD)); 0.09 (0.06) ng/mL in series [2] (plasma, Day 24 pre-dose, mean (SD)); 0.09 (0.06) ng/mL in series [2] (plasma, Day 28 pre-dose, mean (SD)). Also, in series [2] (plasma, Day 28, dose/AUC 0-12 h, mean (SD)), the “CL/Fss (apparent total body clearance at steady state)” value was 239 (119) L/h. In series [2] (plasma, Day 28, mean (SD)), the Cav is given as 0.88 (0.45) ng/mL. The Cmin in series [2] (plasma, Day 28, mean (SD)) is reported as 0.09 (0.03) ng/mL. Moreover, the tmin in series [2] (plasma, Day 28, median (range)) is listed as 11.92 (8.13–12.17) h.
